Data from PubChem BioAssay AID1963868 (Molecular Pharmacology Branch, DTP, NCI, 2024).

Tested on: KRAS PDC tumor spheroids (HUVEC+MSC), viability
Test: Anticancer human tumor 254851-301-R-J1-PDC patient-derived colon carcinoma cell line growth inhibition [KRAS2]
Details: for IC50: curve of first compound; for viability, T/C: stronger effect = lower value
Outline: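 KRAS-mutant tumor cells were grown as spheroids with HUVEC endothelial cells and human MSCs as stroma. Targeted agents were tested alone and with KRAS pathway inhibitors. Doses started at or near clinical Cmax, or 10 microM, descending half-log.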

[1] = second compound 0.1 µM, first compound 0.0316 µM
[2] = second compound 0.1 µM, first compound 0.1 µM
[3] = second compound 0.1 µM, first compound 0.316 µM
[4] = second compound 0.1 µM, first compound 1 µM
[5] = second compound 0.1 µM, first compound 3.16 µM
[6] = second compound 0.316 µM, first compound 0.0316 µM
[7] = second compound 0.316 µM, first compound 0.1 µM
[8] = second compound 0.316 µM, first compound 0.316 µM
[9] = second compound 0.316 µM, first compound 1 µM
[10] = second compound 0.316 µM, first compound 3.16 µM
[11] = second compound 1 µM, first compound 0.0316 µM
[12] = second compound 1 µM, first compound 0.1 µM
[13] = second compound 1 µM, first compound 0.316 µM
[14] = second compound 1 µM, first compound 1 µM
[15] = second compound 1 µM, first compound 3.16 µM
[16] = second compound 3.16 µM, first compound 0.0316 µM
[17] = second compound 3.16 µM, first compound 0.1 µM
[18] = second compound 3.16 µM, first compound 0.316 µM
[19] = second compound 3.16 µM, first compound 1 µM
[20] = second compound 3.16 µM, first compound 3.16 µM
[21] = second compound 10 µM, first compound 0.0316 µM
[22] = second compound 10 µM, first compound 0.1 µM
[23] = second compound 10 µM, first compound 0.316 µM
[24] = second compound 10 µM, first compound 1 µM
[25] = second compound 10 µM, first compound 3.16 µM
[26] = second compound 0.1 µM, first compound 0.01 µM
[27] = second compound 0.316 µM, first compound 0.01 µM
[28] = second compound 1 µM, first compound 0.01 µM
[29] = second compound 3.16 µM, first compound 0.01 µM
[30] = second compound 10 µM, first compound 0.01 µM
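Note: spheroids exposed to compounds for seven days before readout.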
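Throughout, for viability, T/C: 100% = DMSO vehicle control luminescence of the spheroids.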

Compound: CC1OCC2(CCN(c3cnc(Sc4ccnc(N)c4Cl)c(N)n3)CC2)C1N (stereo not given) + CNCc1ccccc1-c1csc(C(C)Nc2nc(C)nc3cc(OC)c(OC)cc23)c1
- IC50 (second compound 0.1 µM): > 10000 nM
- IC50 (second compound 0.316 µM): > 10000 nM
- IC50 (second compound 1 µM): > 10000 nM
- IC50 (second compound 3.16 µM): < 31.6 nM
- IC50 (second compound 10 µM): < 31.6 nM
- viability, T/C [1]: 103%
- viability, T/C [2]: 97.3%
- viability, T/C [3]: 88.2%
- viability, T/C [4]: 76.4%
- viability, T/C [5]: 78.1%
- viability, T/C (second compound 0.1 µM, first compound 10 µM): 74.6%
- viability, T/C [6]: 92.2%
- viability, T/C [7]: 90.9%
- viability, T/C [8]: 90.5%
- viability, T/C [9]: 81.1%
- viability, T/C [10]: 82.6%
- viability, T/C (second compound 0.316 µM, first compound 10 µM): 75.3%
- viability, T/C [11]: 91.2%
- viability, T/C [12]: 88.5%
- viability, T/C [13]: 86.9%
- viability, T/C [14]: 78.7%
- viability, T/C [15]: 72.4%
- viability, T/C (second compound 1 µM, first compound 10 µM): 67.6%
- viability, T/C [16]: 50.8%
- viability, T/C [17]: 38.7%
- viability, T/C [18]: 52.9%
- viability, T/C [19]: 30.8%
- viability, T/C [20]: 29.4%
- viability, T/C (second compound 3.16 µM, first compound 10 µM): 25.9%
- viability, T/C [21]: 0.09%
- viability, T/C [22]: 0.09%
- viability, T/C [23]: 0.08%
- viability, T/C [24]: 0.09%
- viability, T/C [25]: 0.42%
- viability, T/C (second compound 10 µM, first compound 10 µM): 0.17%

Compound: CC(=O)Nc1cccc(-n2c(=O)n(C3CC3)c(=O)c3c(Nc4ccc(I)cc4F)n(C)c(=O)c(C)c32)c1 + COc1cc2nc(C)nc(NC(C)c3cc(N)cc(C(F)(F)F)c3)c2cc1OC1CCOC1
- IC50 (second compound 0.1 µM): 3.89 nM
- IC50 (second compound 0.316 µM): 4.05 nM
- IC50 (second compound 1 µM): 2.77 nM
- IC50 (second compound 3.16 µM): 2.19 nM
- IC50 (second compound 10 µM): 0.663 nM
- viability, T/C (second compound 0.1 µM, first compound 0.0001 µM): 105%
- viability, T/C (second compound 0.1 µM, first compound 0.000316 µM): 97.8%
- viability, T/C (second compound 0.1 µM, first compound 0.001 µM): 90.6%
- viability, T/C (second compound 0.1 µM, first compound 0.00316 µM): 60.4%
- viability, T/C [26]: 9.1%
- viability, T/C [1]: 2.7%
- viability, T/C (second compound 0.316 µM, first compound 0.0001 µM): 108%
- viability, T/C (second compound 0.316 µM, first compound 0.000316 µM): 99%
- viability, T/C (second compound 0.316 µM, first compound 0.001 µM): 94%
- viability, T/C (second compound 0.316 µM, first compound 0.00316 µM): 62.7%
- viability, T/C [27]: 6.64%
- viability, T/C [6]: 2.56%
- viability, T/C (second compound 1 µM, first compound 0.0001 µM): 111%
- viability, T/C (second compound 1 µM, first compound 0.000316 µM): 88.2%
- viability, T/C (second compound 1 µM, first compound 0.001 µM): 89.9%
- viability, T/C (second compound 1 µM, first compound 0.00316 µM): 45.8%
- viability, T/C [28]: 5.69%
- viability, T/C [11]: 2.26%
- viability, T/C (second compound 3.16 µM, first compound 0.0001 µM): 100%
- viability, T/C (second compound 3.16 µM, first compound 0.000316 µM): 97.7%
- viability, T/C (second compound 3.16 µM, first compound 0.001 µM): 85.6%
- viability, T/C (second compound 3.16 µM, first compound 0.00316 µM): 33.4%
- viability, T/C [29]: 4.02%
- viability, T/C [16]: 2.15%
- viability, T/C (second compound 10 µM, first compound 0.0001 µM): 84.8%
- viability, T/C (second compound 10 µM, first compound 0.000316 µM): 72.5%
- viability, T/C (second compound 10 µM, first compound 0.001 µM): 38%
- viability, T/C (second compound 10 µM, first compound 0.00316 µM): 3.27%
- viability, T/C [30]: 2.32%
- viability, T/C [21]: 1.62%

Compound: CC(=O)OC12COC1CC(O)C1(C)C(=O)C(O)C3=C(C)C(OC(=O)C(O)C(NC(=O)OC(C)(C)C)c4ccccc4)CC(O)(C(OC(=O)c4ccccc4)C21)C3(C)C (stereo not given) + COc1cc2nc(C)nc(NC(C)c3cc(N)cc(C(F)(F)F)c3)c2cc1OC1CCOC1
- IC50 (second compound 0.1 µM): 180 nM
- IC50 (second compound 0.316 µM): 143 nM
- IC50 (second compound 1 µM): 166 nM
- IC50 (second compound 3.16 µM): 66.2 nM
- IC50 (second compound 10 µM): 69.7 nM
- viability, T/C [26]: 95%
- viability, T/C [1]: 87%
- viability, T/C [2]: 62.2%
- viability, T/C [3]: 38.4%
- viability, T/C [4]: 27%
- viability, T/C [5]: 24.5%
- viability, T/C [27]: 96.1%
- viability, T/C [6]: 92.7%
- viability, T/C [7]: 56.4%
- viability, T/C [8]: 34.6%
- viability, T/C [9]: 24.7%
- viability, T/C [10]: 23.3%
- viability, T/C [28]: 82.2%
- viability, T/C [11]: 78.7%
- viability, T/C [12]: 62.1%
- viability, T/C [13]: 34.6%
- viability, T/C [14]: 26.4%
- viability, T/C [15]: 24.5%
- viability, T/C [29]: 71.8%
- viability, T/C [16]: 67%
- viability, T/C [17]: 40.3%
- viability, T/C [18]: 28.1%
- viability, T/C [19]: 24.9%
- viability, T/C [20]: 24.2%
- viability, T/C [30]: 72.4%
- viability, T/C [21]: 68.9%
- viability, T/C [22]: 41.4%
- viability, T/C [23]: 25%
- viability, T/C [24]: 25.1%
- viability, T/C [25]: 24.4%
